Experiments:
[1] = tested on: Col4a3 knockout mice; assay: Fibrosis, lipid droplets, serum and kidney cortex lipids, CD36 in Col4a3 knockout mice treated with ezetimibe (FIG. 4); type: in vivo, mouse
Procedure: (§1) Determination of cholesterol content in kidney cortex: Tissue from kidney cortexes was homogenized in hypotonic buffer (10 mM HEPES pH7.0, 15 mM KCl, 1 mM MgCl2, 10 mM phosphatase inhibitors). Lipids from 100 μl of the homogenate were extracted with 1 ml of hexane:isopropanol (3:2, v/v), dried and reconstituted in 100 μl of isopropanol-NP40 (9:1, v/v). Tissue fractions not soluble in the organic solvent, were further dried, reconstituted in 8 M urea, and assayed for protein concentration using Pierce BCA protein assay kit (ThermoFisher Scientific, MA, USA). Total cholesterol from lipid extracts was determined by the enzymatic method as previously described (Robinet, P., Wang, Z., Hazen, S. L. & Smith, J. D. A simple and sensitive enzymatic method for cholesterol quantification in macrophages and foam cells. Journal of lipid research 51, 3364-3369, 2010). Briefly, endogenous peroxides present were eliminated by incubating samples and standards with catalase (Sigma-Aldrich, MO, USA), 45 U/ml final concentration, for 15 min at 37° C. Then, 50 μl of samples and standards were mixed with 50 μl of reagent A (2 U/ml cholesterol oxidase (Sigma-Aldrich, MO, USA), 0.6 U/ml cholesterol esterase (MP Biomedicals), 2 U/ml HRP (Sigma), 100 μM Amplex Red (ThermoFisher Scientific, MA, USA) in black 96-well plates. The plates were incubated at 37° C. for 30 min and fluorescence was read at 530 nm (Ex) and 580 nm (Em) in a plate reader (SpectraMax M5, Molecular Devices, CA, USA). Cholesteryl esters (CE) quantification was based on the method described from Toshimi M, et al. Briefly, 25 μl of samples was mixed with 150 μl of free cholesterol decomposition reagent (45 U/ml catalase, 1 U/ml cholesterol oxidase) and incubated 2-4 h at 37° C., and then the final volume was brought up to 250 μl prior to determining free and total cholesterol remaining. Total cholesterol remaining was determined by mixing 50 μl of end product reaction with 50 μl of reagent A, as described above. Free cholesterol remaining was determined similarly, but without including cholesterol esterase in the reagent. CE was calculated by the formula CE=(TC−FC)×DF, where TC is the total cholesterol remaining, FC the free cholesterol remaining and DF the dilution factor, in this case, 10.
Lipid content: Oil Red 0 staining was performed on frozen tissue sections and triglyceride content was determined on snap frozen kidney tissue as described above.
Mouse models: Mice in which exon 5 of a3 chain of collagen type IV is deleted (Col4a3 KO) were obtained from the Jackson Laboratory (#002908, 129-Col4a3tm1Dec/J). Col4a3 heterozygous littermates were bred to generate Col4a3 KO mice. Four groups of mice with n=3-10 per group were studied. The four groups consisted of: 1) wildtype controls+vehicle, 2) wildtype controls+ezetimibe, 3) Col4a3 KO+vehicle, 4) Col4a3 KO+ezetimibe. ezetimibe was administered by oral gavage daily starting at 4 weeks of age at a concentration of 5 mg/kg body weight. […] Mice were sacrificed at 8 weeks of age when progression to end-stage renal failure had occurred.
Serology: Immediately prior to sacrifice, a blood sample was collected for the determination of BUN and lipid panel analysis in the comparative laboratory core facility of the University of Miami. Serum creatinine was determined by tandem mass spectrometry (UAB-UCSD O'Brien Core Center, University of Alabama).
Picrosirius red staining: Paraffin-embedded sections (4 μm thick) were deparaffinized with xylene and a graded alcohol series. Sections were rinsed for 5 min in distilled water, stained for 1 hour with picrosirius red in saturated aqueous picric acid, examined under a light microscope and photomicrographs were taken. Histological images were visualized using a light microscope (Olympus BX 41, Tokyo, Japan) at 40× magnification and analyzed using Image J software.

[2] = tested on: Col4a3−/− mice; assay: Renal cortex lipid content in Col4a3-/- mice (Example 4, FIG. 7); type: in vivo, mouse; conditions: for triglyceride (TG) content in kidney cortexes: treated vs untreated Col4a3−/− mice, ezetimibe 5 mg/kg, ramipril 10 mg/kg, 4 weeks
Procedure: as §1, with “Then, 50 μl of samples and standards were mixed with 50 μl of reagent A (2 U/ml cholesterol oxidase (Sigma-Aldrich, MO, USA), 0.6 U/ml cholesterol esterase (MP Biomedicals), 2 U/ml HRP (Sigma), 100 μM Amplex Red (ThermoFisher Scientific, MA, USA) in black 96-well plates.” left out, “10. Lipid content: Oil Red 0 staining was performed on frozen tissue sections and triglyceride content was determined on snap frozen kidney tissue as described above. The following experiment was performed to investigate which treatment, ezetimibe (EZ), ramipril (Ramp) or the combination of both drugs (EZ+Ramp), would best preserve renal function in Col4a3 knockout mice, all drugs were administered to 4-week-old Col4a3−/− mice for 4 weeks as follows: ezetimibe (Ez) was orally administered at a concentration of 5 mg/kg BW, ramipril was added to the drinking water at a concentration that would lead to a daily ramipril uptake of 10 mg/kg BW. All mice were sacrificed at 8 weeks of age. The following four groups of mice were analyzed: Col4a3^+/+, Col4a3^−/−+Ez, Col4a3^−/−+Ramp and Col4a3^−/−+Ez+Ramp.” for “10.”

[3] = Col4a3 knockout mice, ezetimibe treated vs untreated

## O=C1[C@H](CC[C@H](O)c2ccc(F)cc2)[C@@H](c2ccc(O)cc2)N1c1ccc(F)cc1 [ezetimibe]
[1]; Col4a3 knockout mice, ezetimibe treated or untreated
  total cholesterol levels in kidney cortexes: No change in total cholesterol levels
[1]; [3]
  fibrosis (PicroSirius Red staining): significant reduction of fibrosis
  glomerular lipid droplets (Oil Red O staining): significant reduction of glomerular lipid droplets
  serum triglyceride levels: significantly decreased
  total serum cholesterol levels: significantly decreased
  triglyceride content in kidney cortexes: significantly reduces triglyceride content
[1]; ezetimibe treated Col4a3 knockout mice (untreated knockout also increased)
  CD36 expression: significantly increased
[1]; ezetimibe treated Col4a3 knockout mice compared to controls (untreated knockout also increased)
  ratio of esterified to total cholesterol in kidney cortexes: significantly increased
[2]; ezetimibe only treated Col4a3−/− mice
  total cholesterol content (kidney cortexes): no effect on the total cholesterol content
[2]
  triglyceride (TG) content in kidney cortexes: significantly decreased
[2]; listed as ezetemibe
  triglyceride (TG) content in kidney cortexes: significantly decreased renal triglyceride content

— patent US20210186930A1, “Methods of Treating Renal Disease Associated With Chronic Kidney Disease Such as Alport Syndrome” (UNIVERSITY OF MIAMI, priority 2018, published 2021)
